According to patent EP0346108A2, “Anti-infective nucleosides” (THE WELLCOME FOUNDATION LIMITED, priority 1988, dated 1989):

Legend:
[1] = Determination of oral bioavailability by urinary recovery as parent compound; conditions: gavage, 50 mg/kg; urine collected for 24 and 48 hours post-dose
Method: Long Evans Rats were administered the compound to be tested by gavage at a dose of 50 mg/kg. The urine was collected for 24 and 48 hours post-dose, ultrafiltered, and analysed by reverse-phase high-pressure liquid chromatography. The oral bioavailability of the compound was expressed as the percent of the dose excreted in the urine as the parent unesterified compound.

[2] = system: Varicella Zoster Virus (VZV); assay: VZV plaque reduction assay in monolayers of MRC5 cells; format: cell-based; conditions: MRC5 cells (human embryonic lung), read-out: ID₅₀(µm) VZV
Method: Varicella Zoster Virus (VZV) is assayed in monolayers of MRC5 cells (human embryonic lung) in multiwell trays. Activity of compounds is determined in the plaque reduction assay, in which a cell monolayer is infected with a suspension of VZV. A range of concentrations of the compound to be tested (of known molarity) is then incorporated into the cell monolayer. Plaque numbers of each concentration are expressed as percentage of the control and a dose-response curve is drawn. From this curve the 50% inhibitory concentration (IC₅₀) is estimated.

Vero cells = assay: Cell toxicity, cell growth inhibition assay (MTT uptake); format: cell-based; conditions: 50% inhibition of cell viability at 96 hours
Method: Cell toxicity is assessed in cell growth inhibition assay. Subconfluent cultures of Vero cells grown on 96-well microtiter dishes are exposed to different dilutions of drug, and cell viability determined daily on replicate cultures using uptake of a tetrazolium dye (MTT). The concentration required for a 50% inhibition of cell vaibility at 96 hours is termed CCID₅₀.

In the case of `CC#Cc1cn([C@@H]2O[C@H](COC(=O)C(C)C)[C@@H](O)[C@@H]2O)c(=O)[nH]c1=O` [Example 1, 1-(5-0-Isobutyryl-β-D-arabinofuranosyl)-5-prop-1-ynyluracil], the “Urinary Recovery (% of dose) as parent compound” value [1] is reported as 40.35 % of dose.
With `CC#Cc1cn([C@@H]2O[C@H](COC(=O)[C@@H](N)C(C)C)[C@@H](O)[C@@H]2O)c(=O)[nH]c1=O` [Example 20, 5-Prop-1-ynyl-1-(5-0-L-valyl-β-D-arabinofuranosyl)uracil] the IC50 [2] was < 1000 nM, the “Urinary Recovery (% of dose) as parent compound” value [1] was 35.90 % of dose and the CCID₅₀ (Vero cells) was >500.
